Measured values published in US20240148744A1 (Celgene Corporation, priority 2021, published 2024).

Test system: Onchocerca gutturosa adult male worms
Experiment: Onchocerca gutturosa in vitro screening model: adult worm motility score and MTT/formazan viability
Format: cell-based
Settings: read-out: O. gutt Activity class

SMILES	IC50 [nM]
O=S(=O)(Nc1cc(O)cc2cccnc12)c1ccccn1 [Compound 94, N-(6-hydroxy-quinolin-8-yl)pyridine-2-sulfonamide]	500 to 5000
Cc1cccnc1S(=O)(=O)Nc1cccc2c(F)ccnc12 [Compound 12, N-(4-fluoro-quinolin-8-yl)-3-methylpyr-idine-2-sulfonamide]	200 to 500
Cn1cc(S(=O)(=O)Nc2ccc(F)c3cccnc23)cn1 [Compound 59, N-(5-fluoro-quinolin-8-yl)-1-meth-yl-1H-pyr-azole-4-sulfonamide]	500 to 5000
O=S(=O)(Nc1cccc2cccnc12)c1ccc(F)cc1F [Compound 275, 2,4-difluoro-N-(quinolin-8-yl)benzene-sulfonamide]	200 to 500
O=S(=O)(Nc1cccc2cccnc12)c1ccc2ccccc2c1 [Compound 282, N-(quinolin-8-yl)naphthalene-2-sulfonamide]	200 to 500
O=S(=O)(Nc1ccc(F)c2cccnc12)c1ccco1 [Compound 64, N-(5-fluoro-quinolin-8-yl)furan-2-sulfonamide]	< 200
O=S(=O)(Nc1ccnc2cccnc12)c1ccccn1 [Compound 203, N-(1,5-naphthyridin-4-yl)pyridine-2-sulfonamide]	500 to 5000
Cn1ccnc1S(=O)(=O)Nc1cccc2cccnc12 [Compound 251, 1-methyl-N-(quinolin-8-yl)-1H-imidazole-2-sulfonamide]	< 200
COc1cc(OC)cc(S(=O)(=O)Nc2cc(F)cc3cccnc23)c1 [Compound 128, N-(6-fluoro-quinolin-8-yl)-3,5-dimethoxy-benzenesulfon-amide]	< 200
N#Cc1cccc(S(=O)(=O)Nc2c(Cl)ccc3cccnc23)c1 [Compound 82, N-(7-chloro-quinolin-8-yl)-3-cyano-benzene sulfonamide]	500 to 5000
NC(=O)c1cccc(S(=O)(=O)Nc2ccc(N3CCOCC3)c3cccnc23)c1 [Compound 92, 3-(N-(5-morpholino-quin-olin-8-yl)sulfamoyl)-benzamide]	500 to 5000
Cc1cccnc1S(=O)(=O)Nc1cccc2c(OC(C)C)ccnc12 [Compound 19, N-(4-iso-propoxyquin-olin-8-yl)-3-methylpyr-idine-2-sulfonamide]	500 to 5000
Cn1nc(N2CCOCC2)cc1S(=O)(=O)Nc1cccc2cccnc12 [Compound 192, 1-methyl-3-morpholino-N-(quinolin-8-yl)-1H-pyrazole-5-sulfonamide]	500 to 5000
CCn1ccnc1S(=O)(=O)Nc1ccc(OC)c2cccnc12 [Compound 57, 1-ethyl-N-(5-methoxyquin-olin-8-yl)-1H-imidazole-2-sulfonamide]	500 to 5000
Cc1cc(NS(=O)(=O)c2ccccn2)c2ncccc2c1 [Compound 132, N-(6-methyl-quinolin-8-yl)pyridine-2-sulfonamide]	200 to 500
Cc1cc(C)cc(S(=O)(=O)Nc2cccc3cccnc23)c1 [Compound 254, 3,5-dimethyl-N-(quinolin-8-yl)benzene-sulfonamide]	< 200
Cc1cccnc1S(=O)(=O)Nc1cccc2c1CN(C1CC1)CC2 [Compound 36, N-(2-cyclo-propyl-1,2,3,4-tetra-hydroisoquin-olin-8-yl)-3-methylpyr-idine-2-sulfonamide]	500 to 5000
N#Cc1ccnc(S(=O)(=O)Nc2c(Cl)ccc3cccnc23)c1 [Compound 71, N-(7-chloro-quinolin-8-yl)-4-cyano-pyridine-2-sulfonamide]	< 200
O=S(=O)(Nc1cccc2cccnc12)c1ccc(Cl)cc1Cl [Compound 278, 2,4-dichloro-N-(quinolin-8-yl)benzene-sulfonamide]	200 to 500
Cc1ccc(S(=O)(=O)Nc2cc(C(F)(F)F)cc3cccnc23)cc1 [Compound 138, 4-methyl-N-(6-(trifluoro-methyl)quin-olin-8-yl)-benzene-sulfonamide]	200 to 500
O=S(=O)(Nc1cccc2cccnc12)c1nnc2ccccn12 [Compound 201, N-(quinolin-8-yl)-[1,2,4]triazolo [4,3-a]pyridine-3-sulfonamide]	500 to 5000
CN(C)c1cncc(S(=O)(=O)Nc2c(Cl)ccc3cccnc23)n1 [Compound 50, N-(7-chloro-quinolin-8-yl)-6-(dimeth-ylamino)pyr-azine-2-sulfonamide]	500 to 5000
O=S(=O)(Nc1cccc2cccnc12)c1ccc(-c2ccccc2)cn1 [Compound 244, 5-phenyl-N-(quinolin-8-yl)pyridine-2-sulfonamide]	500 to 5000
Cc1cccnc1S(=O)(=O)Nc1cccc2c1CN(C)C2 [Compound 51, 3-methyl-N-(2-methyl-isoindolin-4-yl)pyridine-2-sulfonamide]	< 200
COc1nccnc1S(=O)(=O)Nc1c(Cl)ccc2cccnc12 [Compound 101, N-(7-chloro-quinolin-8-yl)-3-methoxypyr-azine-2-sulfon-amide]	500 to 5000
CN(C)c1cccnc1S(=O)(=O)Nc1cccc2c1CN(C1CC1)C2 [Compound 47, N-(2-cyclo-propyliso-indolin-4-yl)-3-(dimethyl-amino)pyr-idine-2-sulfonamide]	500 to 5000
O=S(=O)(Nc1cccc2cccnc12)N1CCCCC1 [Compound 205, N-(quinolin-8-yl)piperidine-1-sulfonamide]	500 to 5000

SMILES	IC50 [nM]
Cn1ccc(S(=O)(=O)Nc2cccc3cccnc23)n1 [Compound 255, 1-methyl-N-(quinolin-8-yl)-1H-pyrazole-3-sulfonamide]	200 to 500
O=S(=O)(Nc1ccc(F)c2cccnc12)c1cn[nH]c1 [Compound 63, N-(5-fluoro-quinolin-8-yl)-1H-pyrazole-4-sulfonamide]	500 to 5000
Cc1cccnc1S(=O)(=O)Nc1cccc2c1CN(C1CC1)C2 [Compound 41, N-(2-cyclo-propyliso-indolin-4-yl)-3-methylpyr-idine-2-sulfonamide]	500 to 5000
Cc1cccnc1S(=O)(=O)Nc1cccc2ncc(N3CCC3)cc12 [Compound 20, N-(3-(azet-idin-1-yl)-quinolin-5-yl)-3-meth-ylpyridine-2-sulfonamide]	200 to 500
Cc1cccnc1S(=O)(=O)Nc1cccc2ncc(N3CCOCC3)cc12 [Compound 24, 3-methyl-N-(3-morpho-linoquinolin-5-yl)pyridine-2-sulfonamide]	500 to 5000
Cc1cc(NS(=O)(=O)c2nccn2C)c2ncccc2c1 [Compound 129, 1-methyl-N-(6-methyl-quinolin-8-yl)-1H-imidazole-2-sulfonamide]	< 200
COc1cnc(S(=O)(=O)Nc2c(Cl)ccc3cccnc23)cn1 [Compound 78, N-(7-chloro-quinolin-8-yl)-5-meth-oxypyrazine-2-sulfonamide]	500 to 5000
O=S(=O)(Nc1cccc2cccnc12)c1ccc(-c2cnco2)nc1 [Compound 172, 6-(oxazol-5-yl)-N-(quinolin-8-yl)pyridine-3-sulfonamide]	500 to 5000
CCc1ccc(NS(=O)(=O)c2nccn2C)c2ncccc12 [Compound 130, N-(5-ethyl-quinolin-8-yl)-1-methyl-1H-imidazole-2-sulfonamide]	500 to 5000
O=S(=O)(Nc1ccc(N2CCOCC2)c2cccnc12)c1cn[nH]c1 [Compound 62, N-(5-morph-olinoquin-olin-8-yl)-1H-pyrazole-4-sulfonamide]	500 to 5000
CN1CCc2cccc(NS(=O)(=O)c3ncccc3C3CC3)c2C1 [Compound 37, 3-cyclo-propyl-N-(2-methyl-1,2,3,4-tetra-hydroisoquin-olin-8-yl)pyr-idine-2-sulfonamide]	200 to 500
O=S(=O)(Nc1ccc2cccnc2c1)c1ccccn1 [Compound 262, N-(quinolin-7-yl)pyridine-2-sulfonamide]	500 to 5000
Cn1nccc1S(=O)(=O)Nc1cccc2cccnc12 [Compound 252, 1-methyl-N-(quinolin-8-yl)-1H-pyrazole-5-sulfonamide]	500 to 5000
O=S(=O)(Nc1cccc2cccnc12)c1ccc(Cl)cn1 [Compound 259, 5-chloro-N-(quinolin-8-yl)pyridine-2-sulfonamide]	500 to 5000
COc1cncc(S(=O)(=O)Nc2c(Cl)ccc3cccnc23)n1 [Compound 81, N-(7-chloro-quinolin-8-yl)-6-meth-oxypyrazine-2-sulfonamide]	500 to 5000
O=S(=O)(Nc1cccc2cccnc12)c1ccc(F)cn1 [Compound 247, 5-fluoro-N-(quinolin-8-yl)pyridine-2-sulfonamide]	< 200
CC(C)n1nccc1S(=O)(=O)Nc1cccc2c1CN(C1CC1)C2 [Compound 40, N-(2-cyclo-propyliso-indolin-4-yl)-1-isopropyl-1H-pyrazole-5-sulfonamide]	500 to 5000
Cc1nc(C(F)(F)F)ccc1S(=O)(=O)Nc1cccc2cccnc12 [Compound 173, 2-methyl-N-(quinolin-8-yl)-6-(trifluoromethyl) pyridine-3-sulfonamide]	500 to 5000
COc1ccc2cccnc2c1NS(=O)(=O)c1ncccc1C1CC1 [Compound 141, 3-cyclopropyl-N-(7-methoxy-quinolin-8-yl)-pyridine-2-sulfonamide]	< 200
Cc1cccnc1S(=O)(=O)Nc1cccc2ccc(N3CCC3)nc12 [Compound 23, N-(2-(azet-idin-1-yl)-quinolin-8-yl)-3-meth-ylpyridine-2-sulfonamide]	500 to 5000
Cc1cnc(S(=O)(=O)Nc2cccc3cccnc23)nc1 [Compound 198, 5-methyl-N-(quinolin-8-yl)pyrimidine-2-sulfonamide]	200 to 500
COc1cccnc1S(=O)(=O)Nc1cccc2cccnc12 [Compound 223, 3-methoxy-N-(quinolin-8-yl)pyridine-2-sulfonamide]	< 200
O=S(=O)(Nc1cc(C2CCCCC2)cc2cccnc12)c1ccccn1 [Compound 131, N-(6-cyclo-hexylquinolin-8-yl)pyridine-2-sulfonamide]	500 to 5000
O=S(=O)(Nc1cc(-c2ccccc2)cc2cccnc12)c1ccccn1 [Compound 97, N-(6-phenyl-quinolin-8-yl)pyridine-2-sulfonamide]	500 to 5000
Cc1cccnc1S(=O)(=O)Nc1cccc2ccc(-c3ccccc3)nc12 [Compound 22, 3-methyl-N-(2-phenyl-quinolin-8-yl)pyridine-2-sulfonamide]	500 to 5000
Cc1cccnc1S(=O)(=O)Nc1cccc2c1NCCC2 [Compound 56, 3-methyl-N-(1,2,3,4-tetra-hydroquinolin-8-yl)pyridine-2-sulfonamide]	500 to 5000
